# Publication PMC3726599, “A Metabolically-Stabilized Phosphonate Analog of Lysophosphatidic Acid Attenuates Collagen-Induced Arthritis” (PLoS ONE, 2013)
# Experiments:
# [1] = target: T1, endogenous ATX/lysoPLD activity in whole blood (Mus musculus, UniProt Q9R1E6); experiment: Inhibition of ATX activity in whole blood ex vivo (TOOS assay); format: biochemical; conditions: 2 h 37°C, TOOS with 1 mM LPC
# T1 construct: from tissue; host or cells: mouse plasma / whole blood
# Method: (§1) ATX/LysoPLD activity was assessed based on the amount of choline released from LPC with the use of TOOS (N-ethyl-N-(2-hydoroxy-3-sulfopropyl)-3-methylaniline) reagent. In this assay ATX-mediated LPC-liberated choline is oxidised by choline oxidase to betaine and hydrogen peroxide (H2O2). The latter in the presence of horseradish peroxidase reacts with TOOS and 4-aminoantipyrene (4-AAP) to form a pink quinoneimine dye measured at 555 nm. […]
# (§2) The liberated choline was detected by adding 100 μl of a color mix containing 4-AAP and TOOS (0.3 mM), horseradish peroxidase (5.3 UnitmL^−1) and choline oxidase (2 UnitmL^−1). Absorbance was measured at 555 nm and data were analyzed using the statistical software package Prism 4.0 (Graphpad Software Inc, La Jolla, CA, USA). For each sample and control the absorbance was plotted against time and the slope (da/min) for the linear (steady-state) portion of each reaction profile was calculated. Absorbance units were converted to nmol of choline/min/ml by comparison with a choline standard curve or by use of the extinction coefficient for the quinoneimine dye according to the following equation: [drawing 1] […]
# Venous blood from wild type mouse was collected in EDTA tubes. […] IC50 values using ATX activity and LPA levels were determined graphically as described above.
# plasma ATX activity = test system: T2, plasma ATX activity; experiment: In vivo inhibition of plasma ATX activity (TOOS assay); design: species or system mouse; conditions: 10 mg/kg i.p.
# T2 construct: from tissue; host or cells: mouse plasma / whole blood
# Method: as §1, §2
# BrP-LPA was administered intraperitoneally (IP) at 10 mg/kg in water to 6–8 week old female mice. […] Plasma samples were then analysed for plasma ATX activity and BrP-LPA/LPA/LPC levels with the TOOS activity assay and HPLC-MS/MS respectively. […]
smiles,measurement,setting,value
"CCCCCCCCCCCCCCCC(=O)OC[C@@H](O)CC(Br)P(=O)(O)O (stereo partly drawn) [BrP-LPA, 1-bromo-3(S)-hydroxy-4-(palmitoyloxy)butyl-phosphonate]",IC50,[1],600 nM
same,reduction of plasma ATX activity,plasma ATX activity; 1 hour post administration,48%
same,"ATX activity, % of initial activity",plasma ATX activity; sixteen hours post administration,92%
